Assay results as given in US8969357B2, “Methods for treating HCV” (AbbVie Inc., priority 2011, dated 2015).

Columns and labels:
[1] = tested on: 1b-Con1 replicons; experiment: Predominant resistant variants selected in genotype 1b replicons; type: cell-based, HCV
Procedure: (§1) Predominant resistant variants selected by Compound 1, 2, or 4 in genotype 1 replicons were also determined. For Compound 1, the predominant resistance variants in 1a-H77 replicons include R155K, D168A and D168V with fold resistance of 26, 48 and 128, respectively; and the predominant resistance variants in 1b-Con1 replicons include R155K, A156T and D168V with fold resistance of 48, 9 and 190, respectively. For Compound 2, the predominant resistance variants in 1a-H77 replicons include C316Y, M414T, Y448C and S556G with fold resistance of 1600, 36, 980 and 15, respectively; and the predominant resistance variants in 1b-Con1 replicons include C316Y, M414T and D559G with fold resistance of 1400, 26 and 100, respectively. For Compound 4, the predominant resistance variants in 1a-H77 replicons include M28T, M28V, Q30R, Y93C and Y93H with fold resistance of 9000, 60, 800, 1700 and 41000, respectively; and the predominant resistance variants in 1b-Con1 replicons include Y93H with fold resistance of 55.

[2] = tested on: 1a-H77 replicons; experiment: Predominant resistant variants selected in genotype 1a replicons; type: cell-based, HCV
Procedure: as §1

Structure (SMILES): Cc1cnc(C(=O)N[C@H]2CCCCC/C=C\[C@@H]3C[C@@]3(C(=O)NS(=O)(=O)C3CC3)NC(=O)[C@@H]3C[C@@H](Oc4nc5ccccc5c5ccccc45)CN3C2=O)cn1 [Compound 1, (2R,6S,13aS,14aR,16aS,Z)—N-(cyclopropylsulfonyl)-6-(5-methylpyrazine-2-carboxamido)-5,16-dioxo-2-(phenanthridin-6-yloxy)-1,2,3,5,6,7,8,9,10,11,13a,14,14a,15,16,16a-hexadecahydrocyclopropa[e]pyrrolo[1,2-a][1,4]diazacyclopentadecine-14a-carboxamide]
- fold resistance ([1]; variant A156T): 9 fold
- fold resistance ([1]; variant D168V): 190 fold
- fold resistance ([1]; variant R155K): 48 fold
- fold resistance ([2]; variant D168A): 48 fold
- fold resistance ([2]; variant D168V): 128 fold
- fold resistance ([2]; variant R155K): 26 fold

Structure (SMILES): COC(=O)N[C@H](C(=O)N1CCC[C@H]1C(=O)Nc1ccc([C@@H]2CC[C@@H](c3ccc(NC(=O)[C@@H]4CCCN4C(=O)[C@@H](NC(=O)OC)C(C)C)cc3)N2c2ccc(C(C)(C)C)cc2)cc1)C(C)C [Compound 4, dimethyl (2S,2′S)-1,1′-((2S,2′S)-2,2′-(4,4′-(2S,5S)-1-(4-tert-butylphenyl)pyrrolidine-2,5,diyl)bis(4,1-phenylene))bis(azanediyl)bis(oxomethylene)bis(pyrrolidine-2,1-diyl)bis(3-methyl-1-oxobutane-2,1-diyl)dicarbamate]
- fold resistance ([1]; variant Y93H): 55 fold
- fold resistance ([2]; variant M28T): 9000 fold
- fold resistance ([2]; variant M28V): 60 fold
- fold resistance ([2]; variant Q30R): 800 fold
- fold resistance ([2]; variant Y93C): 1700 fold
- fold resistance ([2]; variant Y93H): 41000 fold

Structure (SMILES): COc1c(-c2ccc3cc(NS(C)(=O)=O)ccc3c2)cc(-n2ccc(=O)[nH]c2=O)cc1C(C)(C)C [Compound 2, N-(6-(3-tert-butyl-5-(2,4-dioxo-3,4-dihydropyrimidin-1(2H)-yl)-2-methoxyphenyl)naphthalen-2-yl)methanesulfonamide]
- fold resistance ([1]; variant C316Y): 1400 fold
- fold resistance ([1]; variant D559G): 100 fold
- fold resistance ([1]; variant M414T): 26 fold
- fold resistance ([2]; variant C316Y): 1600 fold
- fold resistance ([2]; variant M414T): 36 fold
- fold resistance ([2]; variant S556G): 15 fold
- fold resistance ([2]; variant Y448C): 980 fold
